Data published in patent US9278994B2, “Short antimicrobial lipopeptides” (Helix BioMedix Inc., priority 2012, dated 2016).
Converted amounts (≈) assume the structure as drawn. Where a SMILES comes first, the peptide text is derived from it. [ ]: non-standard residue; d: D form. The star is where a group is joined. Palmitoyl = CCCCCCCCCCCCCCCC(=O)*

How the values were obtained:
P. acnes = format: cell-based, Propionibacterium acnes
Protocol: (§1) 2. Bacterial strains and culture conditions. E. coli UB1005, S. aureus SAP0017 (MRSA) and C. albicans 105 were grown in Mueller Hinton (MH) (Difco, BD Biosciences, MD) agar plates and broth (2 g of beef extract, 17.5 g of acid hydrolysis of casein and 1.5 g of starch per liter) at 37° C. unless otherwise indicated. Bacteria from frozen stock were subcultured onto freshly made MH agar plates prior to susceptibility testing. For P. acnes, the bacterium was grown in BBL™ Brain-Heart infusion (Becton, Dickinson & Company, Sparks Md.) broth or agar plates at 37° C. in anaerobic condition generated using a anaerobic jar and AnaeroGen™ (Oxoid, Basingstoke, Hampshire, England).
(§2) 3. […] The minimal inhibitory concentration (MIC) of each peptide was determined using modified CLSI microtiter broth dilution assay (Methods for Dilution Antimicrobial Susceptibility Tests for Bacteria That Grow Aerobically; Approved Standard—Ninth Edition). An inoculum of 10^5-10^6 colony forming units (CFU)/ml was used or 10^4 CFU/ml for yeast. The MIC value was taken as the lowest peptide concentration at which more than 90% of microbial growth was inhibited after 15 to 20 h of incubation at 37° C. For P. acnes, the incubation was kept under anaerobic condition at 37° C. for 2 weeks before MIC was determined Kill kinetics was performed using a given concentration (about 2-5-fold MIC) of peptide mixed with indicator microorganism. After appropriate dilution the cells were plated on agar plates after defined time intervals and incubated at 37° C. overnight. In the case of P. acnes an extended incubation period was required. The CFU was counted and plotted as survival of bacteria after peptide treatment over time, which indicates the effectiveness of a peptide to kill a microbe.

[1] = test system: EpiDerm (EPI-200) skin tissue; assay: Skin tissue toxicity, EpiDerm skin model with MTT assay; format: cell-based; details: tissue viability (MTT), treated 20 hr
Protocol: 4. Skin tissue toxicity determination. Skin toxicity and compatibility was determined using EpiDerm (EPI-200) skin tissue and MTT Kit (MTT-100) (MatTek, Ashland, Mass.) according to the manufacture's instruction. 1% Triton X-100 and PBS were used as positive (toxic) and negative (non-toxic) control, respectively.
Potential for dermal irritancy of the lipodipeptides was tested using EpiDerm™ Skin Model (MatTek, Ashland, Mass.) in combination with a modified MTT assay. […] EpiDerm™ consists of organized basal, spinous, granular, and cornified layers analogous to those found in vivo. The tissues were treated with each compound at desired concentration for 20 hr.

S. aureus SAP0017 (MRSA) = test system: S. aureus SAP0017 (MRSA)
Protocol: (§3) We conducted the minimal inhibitory concentration (MIC) determination using CLSI (Clinical and Laboratory standard Institute) recommended standard protocol for antimicrobials (Methods for Dilution Antimicrobial Susceptibility Tests for Bacteria That Grow Aerobically; Approved Standard—Ninth Edition).
as §1, §2

E. coli UB1005 = test system: E. coli UB1005
Protocol: as §3, §1, §2

C. albicans 105 = test system: C. albicans 105
Protocol: as §3, §1, §2

[2] = test system: P. acnes, S. aureus, E. coli and C. albicans; assay: MIC / antimicrobial activity; format: cell-based; details: summary of MIC results of Table 1
Protocol: as §1, §2

human dermal fibroblasts = assay: Gene profiling (PCR array of extracellular matrix adhesion molecule genes); format: cell-based; details: 5 μg/ml, 24 h; up (+) or down (−) regulation
Protocol: 5. Gene profiling analysis. The 84 genes encoding extracellular matrix adhesion molecules in human dermal fibroblasts were analyzed using PCR arrays conducted by Sunny Biodiscovery, Inc (Santa Paula, Calif.). Human dermal fibroblasts were from Zen-Bio, Research Triangle Park, N.C. (cat. #DF-F, lot #DFMF112410). […] At the end of the incubation cells were observed under the inverted Nikon TS microscope.
At the end of the incubation period cells were preserved in RNAlater solution (Ambion, Austin, Tex.) for 6 h. RNA was extracted and purified with NucleoSpin RNA II kit from Machery-Nagel, Bethleem, Pa.). Purified total RNA was assessed at 230 nm, 260 nm and 280 nm with Agilent HP-8452A diode array spectrophotometer. The concentration of RNA was equalized across the samples and the expression of genes of interest was measured by real-time quantitative PCR with BioRad iCycler iQ Detection System using PCR arrays PAHS-013A (www.sabiosciences.com/rt_pcr_product/HTML/PAHS-013A.html), with 1st strand synthesis kit, SYBR Green master mix and PCR running conditions from Qiagen (formerly SA Biosciences). Efficiency ΔΔCt method was used for quantification of results, after the normalization of gene expression to 5 housekeeping genes carried with the RT2 Profiler PCR Array Data Analysis version 3.5 software.

MIC P. acnes (P. acnes)	MIC S. aureus (S. aureus SAP0017 (MRSA))	MIC E. coli (E. coli UB1005)	MIC C. albicans (C. albicans 105)	SMILES	antimicrobial activity (in words) [2]	further results
>2000 µg/mL	>2000 µg/mL	>2000 µg/mL	>2000 µg/mL	CC(C)[C@H](NC(=O)[C@@H]1CCCN1C(=O)[C@@H](N)CCCCN)C(=O)O [HB2067, KPV-OH, reference compound] (H-Lys-Pro-Val-OH)	–	Toxicity EpiDerm [1]: >2000 µg/mL
32 µg/mL (≈ 0.0549 mM)	>2000 µg/mL	>2000 µg/mL	>2000 µg/mL	CCCCCCCCCCCCCCCC(=O)N[C@@H](CCCCN)C(=O)N1CCC[C@@H]1C(=O)N[C@H](C(=O)O)[C@@H](C)O [HB2182, Pal-KdPT-OH] (Palmitoyl-Lys-[dP]-Thr-OH)	less active or inactive	–
8 µg/mL (≈ 0.0138 mM)	>2000 µg/mL	>2000 µg/mL	>2000 µg/mL	CCCCCCCCCCCCCCCC(=O)N[C@@H](CCCCN)C(=O)N1CCC[C@H]1C(=O)N[C@H](C(=O)O)C(C)C [HB2184, Pal-KPV-OH] (Palmitoyl-Lys-Pro-Val-OH)	less active or inactive	–
1 to 2 µg/mL	4 µg/mL (≈ 0.00768 mM)	16 µg/mL (≈ 0.0307 mM)	16 µg/mL (≈ 0.0307 mM)	CCCCCCCCCCCCCCCC(=O)N[C@@H](CCCCN)C(=O)N[C@@H](Cc1c[nH]cn1)C(N)=O [HB2242, Pal-KH-NH2]	broad spectrum antimicrobial activity	Fold change (peptide vs. PBS control) ADAMTS (human dermal fibroblasts): 4.7899 Fold change; Fold change (peptide vs. PBS control) CDH1 (human dermal fibroblasts): 1.9725 Fold change; Fold change (peptide vs. PBS control) COL1A1 (human dermal fibroblasts): 1.1975 Fold change; Fold change (peptide vs. PBS control) COL8A1 (human dermal fibroblasts): −1.4044 Fold change; Fold change (peptide vs. PBS control) HAS1 (human dermal fibroblasts): −2.3295 Fold change; Fold change (peptide vs. PBS control) ITGA6 (human dermal fibroblasts): −1.014 Fold change; Fold change (peptide vs. PBS control) ITGA7 (human dermal fibroblasts): −2.0279 Fold change; Fold change (peptide vs. PBS control) ITGB2 (human dermal fibroblasts): 1.3947 Fold change; Fold change (peptide vs. PBS control) KAL1 (human dermal fibroblasts): 1.8404 Fold change; Fold change (peptide vs. PBS control) MMP1 (human dermal fibroblasts): 1.7171 Fold change; Fold change (peptide vs. PBS control) MMP8 (human dermal fibroblasts): −1.6472 Fold change; Fold change (peptide vs. PBS control) MMP9 (human dermal fibroblasts): −1.6472 Fold change; Fold change (peptide vs. PBS control) MMP10 (human dermal fibroblasts): 1.2142 Fold change; Fold change (peptide vs. PBS control) MMP13 (human dermal fibroblasts): −2.4967 Fold change; Fold change (peptide vs. PBS control) MMP14 (human dermal fibroblasts): 1.2142 Fold change; Fold change (peptide vs. PBS control) SELE (human dermal fibroblasts): 1.3947 Fold change; Fold change (peptide vs. PBS control) THBS3 (human dermal fibroblasts): −3.0738 Fold change
32 to 64 µg/mL	250 µg/mL (≈ 0.567 mM)	>2000 µg/mL	>2000 µg/mL	CCCCCCCCCCCCCCCC(=O)N[C@@H](CCCCN)C(=O)NCC(N)=O [HB2243, Pal-KG-NH2] (Palmitoyl-Lys-Gly-NH2)	more Gram-positive selective activity	–
8 µg/mL (≈ 0.0161 mM)	250 µg/mL (≈ 0.503 mM)	>2000 µg/mL	>2000 µg/mL	CCCCCCCCCCCCCCCC(=O)N[C@@H](CCCCN)C(=O)N[C@@H](CC(C)C)C(N)=O [HB2244, Pal-KL-NH2] (Palmitoyl-Lys-Leu-NH2)	more Gram-positive selective activity	–
>2000 µg/mL	128 µg/mL (≈ 0.258 mM)	>2000 µg/mL	>2000 µg/mL	CCCCCCCCCCCCCCCC(=O)N[C@@H](CCCCN)C(=O)N[C@H](C(N)=O)[C@@H](C)CC [HB2246, Pal-KI-NH2]	more Gram-positive selective activity	–
>2000 µg/mL	>2000 µg/mL	>2000 µg/mL	>2000 µg/mL	CCCCCCCCCCCCCCCC(=O)N[C@@H](CCCCN)C(=O)N[C@@H](Cc1c[nH]c2ccccc12)C(N)=O [HB2248, Pal-KW-NH2] (Palmitoyl-Lys-Trp-NH2)	–	–
4 to 16 µg/mL	128 µg/mL (≈ 0.266 mM)	2000 µg/mL (≈ 4.16 mM)	128 µg/mL (≈ 0.266 mM)	CCCCCCCCCCCCCCCC(=O)N1CCC[C@H]1C(=O)N[C@@H](CCCCN)C(N)=O [HB2251, Pal-PK-NH2] (Palmitoyl-Pro-Lys-NH2)	–	–
2 to 4 µg/mL	16 µg/mL (≈ 0.0296 mM)	500 µg/mL (≈ 0.925 mM)	32 µg/mL (≈ 0.0592 mM)	CCCCCCCCCCCCCCCC(=O)N[C@@H](CCCCN)C(=O)N[C@@H](CCCNC(=N)N)C(=O)O [HB2253, Pal-KR-OH] (Palmitoyl-Lys-Arg-OH)	broad spectrum antimicrobial activity	–
>2000 µg/mL	>2000 µg/mL	>2000 µg/mL	>2000 µg/mL	CCCCCCCCCCCCCCCC(=O)N1CCC[C@H]1C(=O)N[C@@H](CCCCN)C(=O)O [HB2255, Pal-PK-OH] (Palmitoyl-Pro-Lys-OH)	inactive	–
>2000 µg/mL	>2000 µg/mL	>2000 µg/mL	>2000 µg/mL	CCCCCCCCCCCCCCCC(=O)N[C@@H](CCCCN)C(=O)N1CCC[C@@H]1C(=O)O [HB2256, Pal-K-dP-OH] (Palmitoyl-Lys-[dP]-OH)	–	–
>2000 µg/mL	>2000 µg/mL	>2000 µg/mL	>2000 µg/mL	CCCCCCCCCCCCCCCC(=O)N[C@@H](CCCCN)C(=O)N1CCC[C@H]1C(=O)O [HB2257, Pal-KP-OH] (Palmitoyl-Lys-Pro-OH)	inactive	–
1 to 4 µg/mL	16 µg/mL (≈ 0.0312 mM)	32 µg/mL (≈ 0.0624 mM)	64 µg/mL (≈ 0.125 mM)	CCCCCCCCCCCCCCCC(=O)N[C@@H](CCCCN)C(=O)N[C@@H](CCCCN)C(=O)O [HB2258, Pal-KK-OH]	–	–
<1 µg/mL	2 µg/mL (≈ 0.00371 mM)	8 µg/mL (≈ 0.0148 mM)	16 µg/mL (≈ 0.0296 mM)	CCCCCCCCCCCCCCCC(=O)N[C@@H](CCCCN)C(=O)N[C@@H](CCCNC(=N)N)C(N)=O [HB2259, Pal-KR-NH2] (Palmitoyl-Lys-Arg-NH2)	broad spectrum antimicrobial activity	Fold change (peptide vs. PBS control) ADAMTS (human dermal fibroblasts): 2.4284 Fold change; Fold change (peptide vs. PBS control) CDH1 (human dermal fibroblasts): 1.0718 Fold change; Fold change (peptide vs. PBS control) COL1A1 (human dermal fibroblasts): −1.8661 Fold change; Fold change (peptide vs. PBS control) COL8A1 (human dermal fibroblasts): −2.5847 Fold change; Fold change (peptide vs. PBS control) HAS1 (human dermal fibroblasts): −3.0314 Fold change; Fold change (peptide vs. PBS control) ITGA2 (human dermal fibroblasts): 1.3195 Fold change; Fold change (peptide vs. PBS control) ITGA7 (human dermal fibroblasts): −1.8661 Fold change; Fold change (peptide vs. PBS control) ITGB2 (human dermal fibroblasts): 2.1435 Fold change; Fold change (peptide vs. PBS control) KAL1 (human dermal fibroblasts): 1.2311 Fold change; Fold change (peptide vs. PBS control) MMP1 (human dermal fibroblasts): 1.1487 Fold change; Fold change (peptide vs. PBS control) MMP8 (human dermal fibroblasts): 2.1435 Fold change; Fold change (peptide vs. PBS control) MMP9 (human dermal fibroblasts): −2.1435 Fold change; Fold change (peptide vs. PBS control) MMP10 (human dermal fibroblasts): 1.6245 Fold change; Fold change (peptide vs. PBS control) MMP13 (human dermal fibroblasts): −3.249 Fold change; Fold change (peptide vs. PBS control) MMP14 (human dermal fibroblasts): −2.4623 Fold change; Fold change (peptide vs. PBS control) SELE (human dermal fibroblasts): 1.0718 Fold change; Fold change (peptide vs. PBS control) THBS3 (human dermal fibroblasts): −1.6245 Fold change
